ChEMBL document CHEMBL1142171, “Identification and structural characterization of I84C and I84A mutations that are associated with high-level resistance to human immunodeficiency virus protease inhibitors and impair viral replication” (2007)

Columns and labels:
Format in all cases: functional, HEK293
[1] = test system: Human immunodeficiency virus 1; assay: Antiviral activity against HIV1 C11 isolate with protease I84C mutation in HEK 293 cells relative to wild type
[2] = test system: Human immunodeficiency virus 1; assay: Antiviral activity against HIV1 A11 isolate with protease I84A mutation in HEK 293 cells relative to wild type
[3] = test system: Human immunodeficiency virus 1; assay: Antiviral activity against HIV1 C3 isolate with protease I84C mutation in HEK 293 cells relative to wild type
[4] = test system: Human immunodeficiency virus 1; assay: Resistance to HIV1 with protease 46I, 54I and I84V mutation in HEK 293 cells relative to similar background
[5] = test system: Human immunodeficiency virus 1; assay: Antiviral activity against HIV1 A8 isolate with protease I84A mutation in HEK 293 cells relative to wild type
[6] = test system: Human immunodeficiency virus 1; assay: Antiviral activity against HIV1 C2 isolate with protease I84C mutation in HEK 293 cells relative to wild type
[7] = test system: Human immunodeficiency virus 1; assay: Antiviral activity against HIV1 C4 isolate with protease I84C mutation in HEK 293 cells relative to wild type
[8] = test system: Human immunodeficiency virus 1; assay: Antiviral activity against HIV1 A7 isolate with protease I84A mutation in HEK 293 cells relative to wild type
[9] = test system: Human immunodeficiency virus 1; assay: Resistance to HIV1 with protease 46M, 54I and I84V mutation in HEK 293 cells relative to similar background
[10] = test system: Human immunodeficiency virus 1; assay: Antiviral activity against HIV1 A6 isolate with protease I84A mutation in HEK 293 cells relative to wild type
[11] = test system: Human immunodeficiency virus 1; assay: Antiviral activity against HIV1 A10 isolate with protease I84A mutation in HEK 293 cells relative to wild type
[12] = test system: Human immunodeficiency virus 1; assay: Antiviral activity against HIV1 C5 isolate with protease I84C mutation in HEK 293 cells relative to wild type
[13] = test system: Human immunodeficiency virus 1; assay: Antiviral activity against HIV1 A13 isolate with protease I84A mutation in HEK 293 cells relative to wild type
[14] = test system: Human immunodeficiency virus 1; assay: Resistance to HIV1 with protease 46I, 54V and I84V mutation in HEK 293 cells relative to similar background
[15] = test system: Human immunodeficiency virus 1; assay: Antiviral activity against HIV1 A4 isolate with protease I84A mutation in HEK 293 cells relative to wild type
[16] = test system: Human immunodeficiency virus 1; assay: Antiviral activity against HIV1 C10 isolate with protease I84C mutation in HEK 293 cells relative to wild type
[17] = test system: Human immunodeficiency virus 1; assay: Antiviral activity against HIV1 A1 isolate with protease I84A mutation in HEK 293 cells relative to wild type
[18] = test system: Human immunodeficiency virus 1; assay: Antiviral activity against HIV1 A14 isolate with protease I84A mutation in HEK 293 cells relative to wild type
[19] = test system: Human immunodeficiency virus 1; assay: Antiviral activity against HIV1 C1 isolate with protease I84C mutation in HEK 293 cells relative to wild type
[20] = test system: Human immunodeficiency virus 1; assay: Antiviral activity against HIV1 C9 isolate with protease I84C mutation in HEK 293 cells relative to wild type
[21] = test system: Human immunodeficiency virus 1; assay: Resistance to HIV1 with protease 46I, 54M/V and I84A mutation in HEK 293 relative to similar background
[22] = test system: Human immunodeficiency virus 1; assay: Resistance to HIV1 with protease 46I, 54I and I84A mutation in HEK 293 cells relative to similar background
[23] = test system: Human immunodeficiency virus 1; assay: Resistance to HIV1 with protease 46I/L, 54I and I84C mutation in HEK 293 cells relative to similar background
[24] = test system: Human immunodeficiency virus 1; assay: Antiviral activity against HIV1 C7 isolate with protease I84C mutation in HEK 293 cells relative to wild type
[25] = test system: Human immunodeficiency virus 1; assay: Resistance to HIV1 with protease 46M, 54I and I84C mutation in HEK 293 cells relative to similar background
[26] = test system: Human immunodeficiency virus 1; assay: Antiviral activity against HIV1 A2 isolate with protease I84A mutation in HEK 293 cells relative to wild type
[27] = test system: Human immunodeficiency virus 1; assay: Antiviral activity against HIV1 C8 isolate with protease I84C mutation in HEK 293 cells relative to wild type
[28] = test system: Human immunodeficiency virus 1; assay: Antiviral activity against HIV1 A9 isolate with protease I84A mutation in HEK 293 cells relative to wild type
[29] = test system: Human immunodeficiency virus 1; assay: Antiviral activity against HIV1 A5 isolate with protease I84A mutation in HEK 293 cells relative to wild type
[30] = test system: Human immunodeficiency virus 1; assay: Antiviral activity against HIV1 A15 isolate with protease I84A mutation in HEK 293 cells relative to wild type
[31] = test system: Human immunodeficiency virus 1; assay: Antiviral activity against HIV1 C6 isolate with protease I84C mutation in HEK 293 cells relative to wild type
[32] = test system: Human immunodeficiency virus 1; assay: Antiviral activity against HIV1 A3 isolate with protease I84A mutation in HEK 293 cells relative to wild type
[33] = test system: Human immunodeficiency virus 1; assay: Antiviral activity against HIV1 A12 isolate with protease I84A mutation in HEK 293 cells relative to wild type

| Compound | Fold change [1] | Fold change [2] | Fold change [3] | Fold change [4] | Fold change [5] | Fold change [6] | Fold change [7] | Fold change [8] | Fold change [9] | Fold change [10] | Fold change [11] | Fold change [12] | Fold change [13] | Fold change [14] | Fold change [15] | Fold change [16] | Fold change [17] | Fold change [18] | Fold change [19] | Fold change [20] | further results |
| --- | --- | --- | --- | --- | --- | --- | --- | --- | --- | --- | --- | --- | --- | --- | --- | --- | --- | --- | --- | --- | --- |
| CC(C)CN(C[C@@H](O)[C@H](Cc1ccccc1)NC(=O)O[C@H]1CCOC1)S(=O)(=O)c1ccc(N)cc1 | 18 | 47 | 8.6 | 9 | 252 | 5.4 | 10 | 74 | 4 | 21 | 400 | 20 | 43 | 36 | 32 | 53 | 32 | 141 | 1.7 | 30 | Fold change [21]: 74; Fold change [22]: 33; Fold change [23]: 21; Fold change [24]: 23; Fold change [25]: 8.6; Fold change [26]: 31; Fold change [27]: 12; Fold change [28]: 33; Fold change [29]: 28; Fold change [30]: 30; Fold change [31]: 64; Fold change [32]: 43; Fold change [33]: 400 |
| Cc1c(O)cccc1C(=O)N[C@@H](CSc1ccccc1)[C@H](O)CN1C[C@H]2CCCC[C@H]2C[C@H]1C(=O)NC(C)(C)C | 91 | 600 | 74 | 9 | 600 | 59 | 395 | 600 | 4 | 64 | 600 | 51 | 196 | 16 | 600 | 286 | 600 | 210 | 15 | 70 | Fold change [21]: >600; Fold change [22]: >600; Fold change [23]: 115; Fold change [24]: 600; Fold change [25]: 74; Fold change [26]: 600; Fold change [27]: 86; Fold change [28]: 600; Fold change [29]: 600; Fold change [30]: 600; Fold change [31]: 144; Fold change [32]: 600; Fold change [33]: 600 |
| CC(C)c1nc(CN(C)C(=O)N[C@H](C(=O)N[C@@H](Cc2ccccc2)C[C@H](O)[C@H](Cc2ccccc2)NC(=O)OCc2cncs2)C(C)C)cs1 [RITONAVIR] | 15 | 73 | 10 | 11 | 86 | 8.6 | 9.1 | 141 | 6.7 | 34 | 400 | 15 | 400 | 49 | 42 | 29 | 60 | 105 | 1.6 | 20 | Fold change [21]: >400; Fold change [22]: 74; Fold change [23]: 18; Fold change [24]: 60; Fold change [25]: 10; Fold change [26]: 85; Fold change [27]: 14; Fold change [28]: 167; Fold change [29]: 54; Fold change [30]: 400; Fold change [31]: 22; Fold change [32]: 76; Fold change [33]: 400 |
| CC(C)(C)NC(=O)[C@@H]1CN(Cc2cccnc2)CCN1C[C@@H](O)C[C@@H](Cc1ccccc1)C(=O)N[C@H]1c2ccccc2C[C@H]1O.O | 5.7 | 73 | 4.1 | 9.1 | 400 | 1.3 | 11 | 92 | 2.4 | 38 | 400 | 3.8 | 178 | 19 | 58 | 5.5 | 73 | 152 | 1.2 | 5.5 | Fold change [21]: 178; Fold change [22]: 73; Fold change [23]: 8.6; Fold change [24]: 42; Fold change [25]: 4.1; Fold change [26]: 27; Fold change [27]: 6.4; Fold change [28]: 138; Fold change [29]: 53; Fold change [30]: 118; Fold change [31]: 63; Fold change [32]: 78; Fold change [33]: 400 |
